Experimental data taken from US20250066835A1 (priority 2021, published 2025).

Columns and labels:
Type in all cases: cell-based
[1] = system: colistin-sensitive Pseudomonas aeruginosa strain; assay: PTA staining / SEM backscattered electron image analysis of colistin-treated bacteria over time (FIG. 7); details: colistin 2 mg/L, 37°C, initial concentration 10^6/ml
Procedure: (§1) A Pseudomonas aeruginosa strain whose colistin sensitivity is known from an MIC value measured by a method of related art and a Pseudomonas aeruginosa strain whose colistin resistance is known are used. A bacterial solution suspended in a medium at initial concentration of 10^6/ml is treated with colistin of 2 mg/L, which is concentration that distinguishes between sensitive bacteria and resistant bacteria by the method of related art, is treated and cultured at 37° C., and a certain amount of the bacterial solution is sampled over time.
A polycarbonate track-etched membrane having a hole diameter of 0.2 μm is used as specimen equipment for the SEM observation of bacteria, and bacteria are uniformly collected in a certain area on the membrane. Conductivity is given to the specimen by pre-vaporizing platinum-palladium on a surface of the membrane.
After washing a medium component on a bacterial collection surface with physiological saline, bacteria are treated and fixed for 5 minutes with a glutaraldehyde fixing solution of 2.5% having a protein cross-linking effect in order to prevent the morphological change of the bacteria. After washing the excess fixing solution with water, the bacteria are treated with the PTA aqueous solution having the weight concentration of 10% for 2 minutes and stained. After washing the excess stain with water, the bacteria are dried on the track-etched membrane to form a specimen for the SEM observation.
SEM observation conditions are set to an acceleration voltage of 5 kV, backscattered electron detection, and magnification of 7,000 times. […]
(§2) Next, SEM observation is performed on each specimen from which the series of backscattered electron image (701) is obtained and a specimen in the control group prepared at the same timing, and twenty-five images per specimen and images of 300 to 500 bacterial cells are acquired. The number of images taken and the number of bacterial cells to be imaged are not limited to the above-described number as long as reproducibility of quantitative analysis can be ensured. […]

[2] = system: colistin-resistant Pseudomonas aeruginosa strain; assay: PTA staining / SEM backscattered electron image analysis of colistin-treated bacteria over time; details: colistin 2 mg/L, 37°C, after 60 minutes
Procedure: as §1
A polycarbonate track-etched membrane having a hole diameter of 0.2 μm is used as specimen equipment for the SEM observation of bacteria, and bacteria are uniformly collected in a certain area on the membrane. Conductivity is given to the specimen by pre-vaporizing platinum-palladium on a surface of the membrane. […]
as §2

[3] = system: Pseudomonas aeruginosa strain; assay: Electronic staining with PTA aqueous solution and SEM observation after antibacterial agent treatment (FIG. 6); details: cultured at 37°C for 30 minutes, 10% PTA aqueous solution, 5 kV backscattered electron image
Procedure: As an example, in FIG. 6, a Pseudomonas aeruginosa strain is used as a material, bacteria in a control group not treated with the antibacterial agent and bacteria in a test group treated with antibacterial agent colistin are cultured at 37° C. for 30 minutes, the bacteria are collected on a track-etched membrane and fixed with glutaraldehyde of 2.5%, a specimen is prepared by performing electronic staining for 2 minutes by using a PTA aqueous solution having weight concentration of 10% as a stain and a platinum blue aqueous solution as a comparison, and a backscattered electron image is obtained by SEM observation at an acceleration voltage of 5 kV.
In the specimen stained with the PTA aqueous solution, an image of bacteria having low image brightness is observed in the control group, and an image of bacteria having high image brightness is observed in the test group. On the other hand, in the specimen stained with the platinum blue aqueous solution, the image brightness of the bacteria in both the control group and the test group is high, and no significant difference is observed between the control group and the test group.

colistin
ratio of the microbe 1 (corresponds to viability) ([1]; after 8 minutes): 80%
ratio of the microbe 1 (corresponds to viability) ([1]; after 30 minutes): 60%
ratio of the microbe 1 (corresponds to viability) ([1]; after 60 minutes): 0%
ratio of the microbe 1 (corresponds to viability) [2]: about 95%
PTA staining intensity / image brightness of treated bacteria [3]: strong PTA staining
